Experimental data: ChEMBL document CHEMBL1201862, “PubChem BioAssay data set” (2004)
Active and inactive are the calls of the source.

Key:
HEK293 = experiment: inhibitors of LMP1-driven NF-kB reporter, dose response, cell-based, HEK293, luciferase, cherry-pick (AID 588343); type: functional; conditions: Homo sapiens
[1] = target: Heat shock protein HSP 90-alpha (Homo sapiens, UniProt P07900); type: functional, organism-based
P388 = experiment: cells; type: functional; conditions: Mus musculus
SN12K1 = experiment: cells; type: functional; conditions: Homo sapiens
P388/ADR = experiment: cells; type: functional; conditions: Mus musculus
[2] = Luminescence Cell-Based Dose Retest to Confirm Inhibitors of Cancer Stem Cells. [Related pubchem assays (depositor defined):AID2717, AID2721]; type: functional; conditions: Homo sapiens
[3] = ZM109 Env clade C HIV-1 fusion inhibitors, dose response, HeLa effector, CEM target cells, luciferase, cherry-pick (AID 652058); type: functional, cell-based
[4] = inhibitors of HIV Env-driven cell fusion, dose response, cherry-pick (AID 652057); type: functional, cell-based
[5] = inhibitors of clade B AD8 Env fusion, dose response, cell-based, cherry-pick (AID 652062); type: functional;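 also: luciferase signal from cell-cell fusion driven by HIV-1 clade B AD8 Env; potency is for inhibitors of fusion seen as a drop in luminescence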
Protein RecA = target: T1, Protein RecA (Mycobacterium tuberculosis, UniProt P9WHJ3); experiment: Fluorescence Cell-Free Homogeneous Dose Retest to Identify Inhibitors of RecA-Intein Splicing Activity. [Related pubchem assays (depositor defined):AID2097, AID2223, AID489010, AID492950]; type: functional
T1 sequence (P9WHJ3 whole entry): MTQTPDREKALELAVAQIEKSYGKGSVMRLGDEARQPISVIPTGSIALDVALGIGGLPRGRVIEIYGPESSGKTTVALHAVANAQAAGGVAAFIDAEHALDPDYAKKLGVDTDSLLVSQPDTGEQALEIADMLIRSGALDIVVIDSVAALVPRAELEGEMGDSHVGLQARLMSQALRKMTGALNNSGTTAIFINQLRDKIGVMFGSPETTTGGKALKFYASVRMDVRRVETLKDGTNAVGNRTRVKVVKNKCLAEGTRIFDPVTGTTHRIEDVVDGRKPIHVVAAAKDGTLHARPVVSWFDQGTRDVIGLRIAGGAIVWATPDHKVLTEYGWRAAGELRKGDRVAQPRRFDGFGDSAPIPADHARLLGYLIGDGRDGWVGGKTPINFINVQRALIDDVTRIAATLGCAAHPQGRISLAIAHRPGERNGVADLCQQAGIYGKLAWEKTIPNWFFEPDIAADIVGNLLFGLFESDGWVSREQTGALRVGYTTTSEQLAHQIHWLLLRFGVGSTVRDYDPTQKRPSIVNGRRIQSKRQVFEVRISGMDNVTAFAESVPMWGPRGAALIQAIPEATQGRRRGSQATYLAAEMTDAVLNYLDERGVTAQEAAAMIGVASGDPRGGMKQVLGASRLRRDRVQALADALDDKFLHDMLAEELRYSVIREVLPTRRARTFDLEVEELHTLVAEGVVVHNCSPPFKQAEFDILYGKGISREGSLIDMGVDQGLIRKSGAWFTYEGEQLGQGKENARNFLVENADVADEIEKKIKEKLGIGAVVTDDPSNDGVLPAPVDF

[6] = target: T2, Heat shock factor protein 1 (Mus musculus, UniProt P38532); experiment: HSF1 potentiators in luciferase reporter cells, confirmation, cell-based, NIH3T3, luminescence, dose retest (AID 435004); type: functional;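 also: stress induced by proteasome inhibitor MG132 added 30 min after compound; luciferase reporter driven by HSF1 response element in NIH3T3 cells; actives raise luminescence as potentiators of the MG132 stress response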
T2 sequence (P38532 whole entry): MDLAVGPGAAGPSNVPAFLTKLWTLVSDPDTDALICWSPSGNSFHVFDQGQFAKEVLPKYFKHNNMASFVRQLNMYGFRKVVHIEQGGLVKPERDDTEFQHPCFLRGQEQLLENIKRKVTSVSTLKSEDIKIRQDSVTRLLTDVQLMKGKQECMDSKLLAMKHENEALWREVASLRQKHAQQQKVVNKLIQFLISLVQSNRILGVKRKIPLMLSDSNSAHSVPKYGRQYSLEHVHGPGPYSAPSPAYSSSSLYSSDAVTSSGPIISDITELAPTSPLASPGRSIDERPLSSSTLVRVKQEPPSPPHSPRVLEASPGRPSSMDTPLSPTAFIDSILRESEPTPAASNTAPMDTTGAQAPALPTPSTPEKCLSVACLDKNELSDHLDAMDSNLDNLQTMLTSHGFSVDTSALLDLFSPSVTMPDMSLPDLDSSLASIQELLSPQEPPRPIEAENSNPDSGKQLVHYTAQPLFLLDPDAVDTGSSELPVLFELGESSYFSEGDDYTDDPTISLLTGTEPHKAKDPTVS

[7] = target: T3, Replicative DNA helicase DnaB (Mycobacterium tuberculosis, UniProt P9WMR3); experiment: DnaB intein splicing inhibitors, dose response, biochemical, cell-free fluorescence (AID 449749); type: functional
T3 sequence (P9WMR3 whole entry): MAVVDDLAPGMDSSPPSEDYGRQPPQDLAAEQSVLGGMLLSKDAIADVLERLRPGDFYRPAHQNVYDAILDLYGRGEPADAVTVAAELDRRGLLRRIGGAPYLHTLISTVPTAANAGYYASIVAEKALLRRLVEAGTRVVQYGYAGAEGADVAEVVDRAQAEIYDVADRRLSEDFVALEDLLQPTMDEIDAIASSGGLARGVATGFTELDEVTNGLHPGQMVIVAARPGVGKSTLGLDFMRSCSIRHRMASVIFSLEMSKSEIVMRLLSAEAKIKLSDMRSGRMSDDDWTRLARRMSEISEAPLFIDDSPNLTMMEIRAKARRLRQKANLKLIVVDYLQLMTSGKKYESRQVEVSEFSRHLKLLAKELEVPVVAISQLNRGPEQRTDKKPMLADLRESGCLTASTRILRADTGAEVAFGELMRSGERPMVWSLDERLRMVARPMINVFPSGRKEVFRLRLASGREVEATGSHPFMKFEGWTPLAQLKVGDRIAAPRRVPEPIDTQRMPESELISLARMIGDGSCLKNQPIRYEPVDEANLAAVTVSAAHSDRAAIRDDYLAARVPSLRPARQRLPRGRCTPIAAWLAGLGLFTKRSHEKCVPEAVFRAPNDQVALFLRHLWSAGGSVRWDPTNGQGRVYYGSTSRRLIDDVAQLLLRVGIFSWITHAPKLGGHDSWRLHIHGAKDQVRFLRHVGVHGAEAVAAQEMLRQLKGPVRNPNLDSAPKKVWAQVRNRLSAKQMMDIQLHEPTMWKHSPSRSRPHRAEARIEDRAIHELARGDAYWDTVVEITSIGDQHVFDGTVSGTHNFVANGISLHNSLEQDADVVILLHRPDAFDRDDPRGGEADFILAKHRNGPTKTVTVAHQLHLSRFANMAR

[8] = target: T4, Microphthalmia-associated transcription factor (Homo sapiens, UniProt O75030); experiment: TRPM1 promoter luciferase signal decrease, dose response, MITF inhibitor project, cell-based, SK-MEL-5, cherry-picked, set 3 (AID 493073); type: functional
T4 sequence (O75030 whole entry): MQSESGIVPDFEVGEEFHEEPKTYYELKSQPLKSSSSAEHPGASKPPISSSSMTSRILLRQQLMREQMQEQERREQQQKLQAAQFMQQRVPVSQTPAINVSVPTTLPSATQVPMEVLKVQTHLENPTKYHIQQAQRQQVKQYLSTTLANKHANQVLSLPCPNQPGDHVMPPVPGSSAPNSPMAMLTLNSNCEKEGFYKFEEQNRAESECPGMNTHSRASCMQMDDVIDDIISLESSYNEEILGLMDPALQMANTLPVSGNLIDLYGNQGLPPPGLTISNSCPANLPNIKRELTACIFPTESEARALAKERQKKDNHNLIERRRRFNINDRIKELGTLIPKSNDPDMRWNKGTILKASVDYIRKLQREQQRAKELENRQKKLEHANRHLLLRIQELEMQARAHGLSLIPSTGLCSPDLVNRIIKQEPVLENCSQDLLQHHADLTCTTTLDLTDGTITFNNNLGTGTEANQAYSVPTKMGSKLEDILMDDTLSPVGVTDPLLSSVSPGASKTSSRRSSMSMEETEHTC

Nonstructural protein 1 = Nonstructural protein 1 (Influenza A virus, UniProt Q194T2); type: functional, Influenza A virus (A/California/07/2009(H1N1))
[9] = inhibitors of intracellular T. cruzi replication, confirmation, NIH3T3 host cells, beta-gal luminescence (AID 2044); type: functional, cell-based;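 also: intracellular parasites grown in NIH/3T3 mouse fibroblasts as host cells; luminescent beta-galactosidase reporter signal from transgenic T. cruzi replicating inside host cells; inhibitors lower the luminescence signal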
[10] = control 3'UTR Renilla luciferase suppression, dose response, counter-screen for Shn3 inhibitor project, cell-based, Clone20-Shn3RL, cherry-picked (AID 624133); type: functional
[11] = Shn3 3'UTR reporter inhibitors, dose response, cell-based, Clone20 osteoblasts, firefly luciferase, cherry-picked (AID 624132); type: functional;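 also: firefly luciferase luminescence from reporter carrying the Shn3 3'UTR in osteoblasts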
[12] = HepG2 cell cytotoxicity, dose response, cytotoxicity control for Shn3 inhibitor project, CellTiter-Glo, cherry-picked (AID 624134); type: functional, cell-based
[13] = cytotoxicity toward NIH3T3 fibroblasts, dose response, counter-screen, cell-based, ATP luminescence, mouse fibroblasts (AID 2010); type: functional;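 also: cells exposed to compound for about 90 hours before reading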
Large T antigen = Large T antigen (Simian virus 40, UniProt P03070); type: functional, Betapolyomavirus macacae;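 also: Confirmatory-stage PubChem screen for compounds that inhibit SV40 T antigen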
[14] = target: T5, Rac GTPase-activating protein 1 (Homo sapiens, UniProt Q9H0H5); experiment: MgcRacGAP GTPase-activating activity inhibitors, confirmation, biochemical, ADP Hunter fluorescence, primary and confirmatory (AID 624330); type: functional
T5 sequence (Q9H0H5 whole entry): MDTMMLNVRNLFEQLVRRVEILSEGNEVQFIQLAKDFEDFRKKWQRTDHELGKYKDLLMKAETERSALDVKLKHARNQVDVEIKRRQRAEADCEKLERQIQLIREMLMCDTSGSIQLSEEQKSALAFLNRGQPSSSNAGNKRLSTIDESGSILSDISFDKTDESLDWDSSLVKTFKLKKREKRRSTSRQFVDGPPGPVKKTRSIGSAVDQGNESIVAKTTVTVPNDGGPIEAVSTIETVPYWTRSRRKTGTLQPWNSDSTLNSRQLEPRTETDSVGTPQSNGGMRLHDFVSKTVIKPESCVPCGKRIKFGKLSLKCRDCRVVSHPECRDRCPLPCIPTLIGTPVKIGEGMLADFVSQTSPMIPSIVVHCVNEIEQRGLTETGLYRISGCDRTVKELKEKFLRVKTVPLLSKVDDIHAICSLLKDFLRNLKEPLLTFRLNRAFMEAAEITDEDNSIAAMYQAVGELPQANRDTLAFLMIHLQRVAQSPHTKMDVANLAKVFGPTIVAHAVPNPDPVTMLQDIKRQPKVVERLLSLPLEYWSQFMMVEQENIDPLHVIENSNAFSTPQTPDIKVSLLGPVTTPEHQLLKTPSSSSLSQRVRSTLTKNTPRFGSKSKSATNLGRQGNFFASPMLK

[15] = target: FAD-linked sulfhydryl oxidase ALR (Homo sapiens, UniProt P55789); experiment: inhibitors of human ALR sulfhydryl oxidase, dose response, biochemical, H2O2 detection, luminescence, cherry-pick (AID 493248)
INS1 = experiment: beta cell apoptosis inhibitors, cytokine rescue, dose response, luminescence, retest (AID 449756); type: functional, cell-based; conditions: Rattus norvegicus, INS1;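 also: cell death triggered by IL-1 beta plus TNF-alpha plus IFN-gamma mixture; protective hits raise ATP signal compared with cytokine alone wells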

Chain of Nonstructural protein 1 (Q194T2 whole entry): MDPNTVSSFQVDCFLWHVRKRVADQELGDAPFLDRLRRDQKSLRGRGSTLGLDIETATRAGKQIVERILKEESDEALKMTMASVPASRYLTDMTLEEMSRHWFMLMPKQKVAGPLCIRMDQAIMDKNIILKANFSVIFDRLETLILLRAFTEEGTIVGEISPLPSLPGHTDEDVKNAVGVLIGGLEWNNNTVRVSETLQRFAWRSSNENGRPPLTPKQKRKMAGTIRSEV
Chain of Large T antigen (P03070 whole entry): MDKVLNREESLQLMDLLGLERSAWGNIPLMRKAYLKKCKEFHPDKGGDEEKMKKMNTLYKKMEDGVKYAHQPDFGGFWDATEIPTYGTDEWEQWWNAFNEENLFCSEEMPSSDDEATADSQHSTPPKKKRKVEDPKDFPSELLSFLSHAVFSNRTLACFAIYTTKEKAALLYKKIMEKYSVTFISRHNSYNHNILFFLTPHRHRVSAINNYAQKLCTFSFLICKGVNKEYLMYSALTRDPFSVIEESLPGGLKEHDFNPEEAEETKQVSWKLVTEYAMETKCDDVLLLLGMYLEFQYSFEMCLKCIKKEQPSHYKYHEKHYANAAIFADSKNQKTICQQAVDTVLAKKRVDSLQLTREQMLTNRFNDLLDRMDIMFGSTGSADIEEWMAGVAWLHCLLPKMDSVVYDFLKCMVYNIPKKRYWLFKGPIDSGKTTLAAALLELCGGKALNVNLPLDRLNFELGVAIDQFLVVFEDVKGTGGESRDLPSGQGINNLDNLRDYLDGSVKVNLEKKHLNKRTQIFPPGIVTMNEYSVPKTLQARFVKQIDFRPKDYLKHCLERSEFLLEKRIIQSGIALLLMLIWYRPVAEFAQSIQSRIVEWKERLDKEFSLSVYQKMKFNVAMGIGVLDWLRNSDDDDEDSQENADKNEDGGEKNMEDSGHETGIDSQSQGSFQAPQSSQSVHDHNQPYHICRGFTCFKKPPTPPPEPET
Chain of FAD-linked sulfhydryl oxidase ALR (P55789 whole entry): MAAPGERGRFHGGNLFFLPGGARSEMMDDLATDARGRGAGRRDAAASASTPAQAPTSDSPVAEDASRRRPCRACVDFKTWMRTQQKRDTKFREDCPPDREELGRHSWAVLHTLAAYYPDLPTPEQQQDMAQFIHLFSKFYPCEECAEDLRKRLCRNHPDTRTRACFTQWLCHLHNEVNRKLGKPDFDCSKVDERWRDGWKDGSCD

c1ccc(C(=NNc2nc3ccccc3s2)c2ccccn2)cc1
AC50 (HEK293): 3.05 µM (active)
AC50 [1]: 16.4 µM (active)

O=c1c2cnn(-c3ccccc3)c2nc(-c2cccs2)n1-c1ccc(Br)cc1
AC50 (HEK293): 1.77 µM (active)

CSc1nc(CO)c(CO)n1C
GI50 (P388): > 100 µM (inactive)
GI50 (SN12K1): > 100 µM (inactive)
GI50 (P388/ADR): > 100 µM (inactive)

CC(=O)Oc1cc2c(cc1OC(C)=O)OCC(c1ccccc1)C2 (centres undefined)
GI50 (P388): 4.16 µM (inactive)
GI50 (SN12K1): 13.6 µM (inactive)
GI50 (P388/ADR): 4.08 µM (inactive)

Cc1ccccc1NC(=O)C(Cl)=C(Cl)Cl
AC50 [2]: 6.73 µM (active)
AC50 (HEK293): 22.1 µM (active)

C[C@H](CO)N1C[C@H](C)[C@H](CN(C)S(=O)(=O)c2ccccc2)Oc2ccc(NS(=O)(=O)c3cccs3)cc2CC1=O
AC50 [3]: 2.13 µM (active)
AC50 [4]: 0.557 µM (active)
AC50 [5]: 12.6 µM (active)

O=C(CCl)Nc1cccc(Oc2ccccc2)c1
EC50 (Protein RecA): 4.28 µM (active)
EC50 [6]: > 260 µM (inactive)
AC50 [7]: 11.9 µM (active)
AC50 [8]: 8.07 µM (active)

COc1ccc(C(=O)COC(=O)CN2CC(=O)Oc3ccccc32)cc1Br
IC50 (Nonstructural protein 1): 4.25 µM (active)

C[C@H](CO)N1C[C@H](C)[C@H](CN(C)CC2CC2)Oc2ccc(NC(=O)Nc3ccc4c(c3)OCO4)cc2CC1=O
AC50 [4]: 4.41 µM (active)
AC50 [5]: 20.5 µM (active)

COc1cccc(C(=O)Nc2ccc3c(cc2=O)[C@@H](NC(C)=O)CCc2cc(OC)c(OC)c(OC)c2-3)c1
AC50 [8]: 8.43 µM (active)

Oc1nc(Nc2nc3ccccc3o2)nc2c1CCCC2
EC50 [9]: 1.9 µM (active)
AC50 [10]: 5.26 µM (active)
AC50 [11]: 7.71 µM (active)
AC50 [12]: 9.63 µM (active)
EC50 [13]: 3.87 µM (active)
AC50 (HEK293): 2.05 µM (active)

Nc1cccc2c1C1=NNC(=O)CC1C2 (centres undefined)
GI50 (P388): > 100 µM (inactive)
GI50 (SN12K1): > 100 µM (inactive)

COc1cc(/C=N/NS(=O)(=O)c2ccc(C)c([N+](=O)[O-])c2)ccc1O
IC50 (Large T antigen): 7.27 µM (active)
IC50 [14]: 40.9 µM (active)
AC50 [15]: 0.181 µM (active)

CNC(=O)SCC(N)C(=O)O (centres undefined)
GI50 (P388): 16.5 µM (inactive)
GI50 (SN12K1): 62.2 µM (inactive)
GI50 (P388/ADR): 16.8 µM (inactive)

c1ccc2c(c1)OCCc1cn[nH]c1-2
GI50 (P388): > 100 µM (inactive)
GI50 (SN12K1): > 100 µM (inactive)
GI50 (P388/ADR): > 100 µM (inactive)

C[C@H](CO)N1C[C@H](C)[C@H](CN(C)S(=O)(=O)c2ccccc2)Oc2ncc(/C=C/c3ccccc3)cc2C1=O
AC50 [3]: 3.51 µM (active)

CC(C)COC(=O)c1ccc2c(c1O)C(=O)c1ccccc1C2=O
AC50 (INS1): 10.9 µM (active)
IC50 (Nonstructural protein 1): 34.6 µM (active)

CSc1nc(NC2OC(CO)C(O)C(O)C2O)c(N)c(=O)[nH]1 (centres undefined)
GI50 (P388): > 100 µM (inactive)
GI50 (SN12K1): > 100 µM (inactive)
GI50 (P388/ADR): > 100 µM (inactive)

O=C(Cc1ccccc1)NCC(=O)N/N=C/c1ccc([N+](=O)[O-])s1
AC50 [8]: 16.1 µM (active)

COc1ccc2c(c1O)-c1cc(O)cc3c1[C@@H](C2)N(C)CC3
GI50 (P388): 9.1 µM (inactive)
GI50 (SN12K1): 63.4 µM (inactive)
GI50 (P388/ADR): 40.2 µM (inactive)
